Measurements as given in paper PMC4685510, “A Cell Biologist’s Field Guide to Aurora Kinase Inhibitors” (Frontiers in Oncology, 2015).

Columns and labels:
Assay in all cases: biochemical
Assay type in all cases: biochemical
[1] = molecular target: 363 human kinases (including Aurora A/B/C) (Homo sapiens, UniProt O75460); settings: ERN1/IRE1, [ATP] 30 µM; for remaining activity at 0.1 µM: 100 nM; for remaining activity at 0.1 µM / remaining activity at 0.5 µM: read-out: % Enzyme Activity (relative to DMSO controls)
From the text: (§1) However, the Aurora A/B selectivity ratios derived from our in vitro and in vivo data can be compared to prioritize inhibitors.

[2] = molecular target: 363 human kinases (including Aurora A/B/C) (Homo sapiens, UniProt P06213); settings: IR; for remaining activity at 0.1 µM: 100 nM; for remaining activity at 0.1 µM / remaining activity at 0.5 µM: read-out: % Enzyme Activity (relative to DMSO controls)
From the text: as §1

[3] = molecular target: 363 human kinases (including Aurora A/B/C) (Homo sapiens, UniProt P49137); settings: MAPKAPK2; for remaining activity at 0.1 µM: 100 nM; for remaining activity at 0.1 µM / remaining activity at 0.5 µM: read-out: % Enzyme Activity (relative to DMSO controls)
From the text: as §1

[4] = molecular target: 363 human kinases (including Aurora A/B/C) (Homo sapiens, UniProt P53667); settings: LIMK1; for remaining activity at 0.1 µM: 100 nM; for remaining activity at 0.1 µM / remaining activity at 0.5 µM: read-out: % Enzyme Activity (relative to DMSO controls)
From the text: as §1

[5] = molecular target: 363 human kinases (including Aurora A/B/C) (Homo sapiens, UniProt Q05397); settings: FAK/PTK2, [ATP] 50 µM; for remaining activity at 0.1 µM: 100 nM; for remaining activity at 0.1 µM / remaining activity at 0.5 µM: read-out: % Enzyme Activity (relative to DMSO controls)
From the text: as §1

[6] = molecular target: 363 human kinases (including Aurora A/B/C) (Homo sapiens, UniProt Q08345); settings: DDR1, [ATP] 100 µM; for remaining activity at 0.1 µM: 100 nM; for remaining activity at 0.1 µM / remaining activity at 0.5 µM: read-out: % Enzyme Activity (relative to DMSO controls)
From the text: as §1

[7] = molecular target: 363 human kinases (including Aurora A/B/C) (Homo sapiens, UniProt Q6P2M8); settings: CAMK1b, [ATP] 5 µM; for remaining activity at 0.1 µM: 100 nM; for remaining activity at 0.1 µM / remaining activity at 0.5 µM: read-out: % Enzyme Activity (relative to DMSO controls)
From the text: as §1

[8] = molecular target: T1, 363 human kinases (including Aurora A/B/C) (Homo sapiens, UniProt Q8NE63); settings: HIPK4; for remaining activity at 0.1 µM: 100 nM; for remaining activity at 0.1 µM / remaining activity at 0.5 µM: read-out: % Enzyme Activity (relative to DMSO controls)
T1 sequence (Q8NE63 1-616): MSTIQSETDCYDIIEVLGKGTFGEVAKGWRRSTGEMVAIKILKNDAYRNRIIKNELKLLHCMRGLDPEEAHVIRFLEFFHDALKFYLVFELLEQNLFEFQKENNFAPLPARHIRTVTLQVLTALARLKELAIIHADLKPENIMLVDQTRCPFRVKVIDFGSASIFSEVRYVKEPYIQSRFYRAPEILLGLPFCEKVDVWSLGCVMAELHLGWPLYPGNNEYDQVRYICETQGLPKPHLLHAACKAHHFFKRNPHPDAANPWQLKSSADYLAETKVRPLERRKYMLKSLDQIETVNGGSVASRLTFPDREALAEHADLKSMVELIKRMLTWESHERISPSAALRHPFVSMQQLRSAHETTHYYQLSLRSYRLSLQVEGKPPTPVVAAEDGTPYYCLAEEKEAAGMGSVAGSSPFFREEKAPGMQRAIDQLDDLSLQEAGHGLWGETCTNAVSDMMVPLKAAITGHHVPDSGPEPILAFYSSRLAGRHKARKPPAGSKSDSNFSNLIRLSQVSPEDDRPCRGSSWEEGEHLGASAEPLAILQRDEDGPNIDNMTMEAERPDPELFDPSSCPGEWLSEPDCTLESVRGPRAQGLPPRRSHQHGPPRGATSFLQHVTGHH
From the text: as §1

[9] = molecular target: T2, 363 human kinases (including Aurora A/B/C) (Homo sapiens, UniProt Q96PN8); settings: TSSK3/STK22C; for remaining activity at 0.1 µM: 100 nM; for remaining activity at 0.1 µM / remaining activity at 0.5 µM: read-out: % Enzyme Activity (relative to DMSO controls)
T2 sequence (Q96PN8 1-268): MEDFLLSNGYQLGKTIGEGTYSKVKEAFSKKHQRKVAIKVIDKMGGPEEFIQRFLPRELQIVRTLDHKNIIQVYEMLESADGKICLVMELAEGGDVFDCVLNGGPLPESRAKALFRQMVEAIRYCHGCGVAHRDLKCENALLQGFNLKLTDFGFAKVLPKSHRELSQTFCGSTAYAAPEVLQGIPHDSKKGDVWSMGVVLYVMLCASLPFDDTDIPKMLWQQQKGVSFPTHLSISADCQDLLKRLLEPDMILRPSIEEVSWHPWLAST
From the text: as §1

[10] = molecular target: T3, 363 human kinases (including Aurora A/B/C) (Homo sapiens, UniProt Q99759); settings: MEKK3; for remaining activity at 0.1 µM: 100 nM; for remaining activity at 0.1 µM / remaining activity at 0.5 µM: read-out: % Enzyme Activity (relative to DMSO controls)
T3 sequence (Q99759 1-626): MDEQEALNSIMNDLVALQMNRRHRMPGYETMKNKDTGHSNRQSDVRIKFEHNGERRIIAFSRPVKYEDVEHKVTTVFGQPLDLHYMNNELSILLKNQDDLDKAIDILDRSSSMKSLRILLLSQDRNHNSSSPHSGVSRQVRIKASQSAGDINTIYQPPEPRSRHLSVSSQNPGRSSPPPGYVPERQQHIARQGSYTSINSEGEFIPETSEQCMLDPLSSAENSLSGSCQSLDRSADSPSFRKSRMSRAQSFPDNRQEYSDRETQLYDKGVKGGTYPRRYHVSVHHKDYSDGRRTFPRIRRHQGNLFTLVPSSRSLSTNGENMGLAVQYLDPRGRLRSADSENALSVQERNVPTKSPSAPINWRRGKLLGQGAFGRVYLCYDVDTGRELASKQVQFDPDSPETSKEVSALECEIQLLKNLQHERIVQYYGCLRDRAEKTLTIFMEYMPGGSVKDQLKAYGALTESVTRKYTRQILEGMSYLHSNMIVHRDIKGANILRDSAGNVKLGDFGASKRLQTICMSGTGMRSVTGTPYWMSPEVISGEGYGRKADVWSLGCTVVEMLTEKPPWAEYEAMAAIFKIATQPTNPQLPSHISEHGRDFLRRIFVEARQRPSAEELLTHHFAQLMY
From the text: as §1

[11] = molecular target: 363 human kinases (including Aurora A/B/C) (Homo sapiens, UniProt Q9NYL2); settings: ZAK/MLTK; for remaining activity at 0.1 µM: 100 nM; for remaining activity at 0.1 µM / remaining activity at 0.5 µM: read-out: % Enzyme Activity (relative to DMSO controls)
Sequence of 363 human kinases (including Aurora A/B/C) (Homo sapiens, UniProt Q9NYL2) (Q9NYL2 whole entry): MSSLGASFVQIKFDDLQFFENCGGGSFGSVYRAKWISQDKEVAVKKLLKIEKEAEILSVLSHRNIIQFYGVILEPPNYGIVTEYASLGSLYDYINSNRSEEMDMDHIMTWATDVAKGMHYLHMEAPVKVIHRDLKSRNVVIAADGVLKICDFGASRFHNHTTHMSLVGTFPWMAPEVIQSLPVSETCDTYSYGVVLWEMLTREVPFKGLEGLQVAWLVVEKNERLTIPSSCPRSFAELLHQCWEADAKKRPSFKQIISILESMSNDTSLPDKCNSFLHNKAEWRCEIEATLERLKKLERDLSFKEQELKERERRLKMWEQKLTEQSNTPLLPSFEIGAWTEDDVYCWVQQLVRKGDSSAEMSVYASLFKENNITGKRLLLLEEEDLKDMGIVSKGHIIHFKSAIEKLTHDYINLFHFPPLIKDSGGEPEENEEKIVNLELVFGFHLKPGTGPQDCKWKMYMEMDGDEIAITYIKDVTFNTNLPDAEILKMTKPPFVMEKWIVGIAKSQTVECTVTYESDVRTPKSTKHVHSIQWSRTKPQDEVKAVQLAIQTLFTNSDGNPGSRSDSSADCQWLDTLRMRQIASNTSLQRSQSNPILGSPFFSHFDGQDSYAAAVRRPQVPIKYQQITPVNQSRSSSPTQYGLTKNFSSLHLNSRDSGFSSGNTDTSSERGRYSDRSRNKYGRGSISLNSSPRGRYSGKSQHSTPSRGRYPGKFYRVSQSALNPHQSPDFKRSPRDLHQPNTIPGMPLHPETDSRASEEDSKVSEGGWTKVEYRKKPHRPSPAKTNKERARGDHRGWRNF
From the text: as §1

Sequence of 363 human kinases (including Aurora A/B/C) (Homo sapiens, UniProt P06213) (P06213 28-1382): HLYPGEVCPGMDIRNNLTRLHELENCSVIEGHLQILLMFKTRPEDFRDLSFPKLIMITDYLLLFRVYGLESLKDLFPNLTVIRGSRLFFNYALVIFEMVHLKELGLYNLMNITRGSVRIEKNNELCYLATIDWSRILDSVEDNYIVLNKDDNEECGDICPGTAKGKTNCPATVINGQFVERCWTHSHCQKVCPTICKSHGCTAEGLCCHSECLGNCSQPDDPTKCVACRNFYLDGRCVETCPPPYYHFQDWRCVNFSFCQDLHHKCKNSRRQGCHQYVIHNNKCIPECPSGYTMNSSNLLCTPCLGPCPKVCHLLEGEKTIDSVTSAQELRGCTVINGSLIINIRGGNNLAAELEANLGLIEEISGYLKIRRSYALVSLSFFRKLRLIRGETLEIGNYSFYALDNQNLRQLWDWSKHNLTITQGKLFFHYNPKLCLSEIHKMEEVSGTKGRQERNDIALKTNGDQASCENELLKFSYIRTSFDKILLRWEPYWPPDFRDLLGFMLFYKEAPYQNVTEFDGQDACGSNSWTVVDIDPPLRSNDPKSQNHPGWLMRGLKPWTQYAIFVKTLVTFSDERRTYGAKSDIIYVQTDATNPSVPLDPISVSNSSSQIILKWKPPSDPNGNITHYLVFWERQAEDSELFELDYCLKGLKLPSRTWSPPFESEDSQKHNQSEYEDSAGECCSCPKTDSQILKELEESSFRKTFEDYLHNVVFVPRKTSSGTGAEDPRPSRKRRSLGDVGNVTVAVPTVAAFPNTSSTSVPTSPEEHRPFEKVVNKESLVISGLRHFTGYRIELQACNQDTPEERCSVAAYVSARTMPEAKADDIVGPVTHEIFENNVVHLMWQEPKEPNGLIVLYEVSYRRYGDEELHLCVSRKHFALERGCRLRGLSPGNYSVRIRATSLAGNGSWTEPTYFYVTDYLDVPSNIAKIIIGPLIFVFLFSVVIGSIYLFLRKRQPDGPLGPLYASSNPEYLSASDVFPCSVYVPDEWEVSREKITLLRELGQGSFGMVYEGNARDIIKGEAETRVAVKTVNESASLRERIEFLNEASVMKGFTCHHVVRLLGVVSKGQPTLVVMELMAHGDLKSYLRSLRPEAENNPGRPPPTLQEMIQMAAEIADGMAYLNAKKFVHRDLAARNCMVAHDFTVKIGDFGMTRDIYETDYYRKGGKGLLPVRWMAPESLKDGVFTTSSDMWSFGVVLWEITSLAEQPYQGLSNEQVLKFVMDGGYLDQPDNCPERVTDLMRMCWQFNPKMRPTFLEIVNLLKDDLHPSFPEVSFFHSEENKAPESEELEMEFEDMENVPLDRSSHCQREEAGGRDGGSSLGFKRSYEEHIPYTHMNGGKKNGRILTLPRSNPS
Sequence of 363 human kinases (including Aurora A/B/C) (Homo sapiens, UniProt Q05397) (Q05397 whole entry): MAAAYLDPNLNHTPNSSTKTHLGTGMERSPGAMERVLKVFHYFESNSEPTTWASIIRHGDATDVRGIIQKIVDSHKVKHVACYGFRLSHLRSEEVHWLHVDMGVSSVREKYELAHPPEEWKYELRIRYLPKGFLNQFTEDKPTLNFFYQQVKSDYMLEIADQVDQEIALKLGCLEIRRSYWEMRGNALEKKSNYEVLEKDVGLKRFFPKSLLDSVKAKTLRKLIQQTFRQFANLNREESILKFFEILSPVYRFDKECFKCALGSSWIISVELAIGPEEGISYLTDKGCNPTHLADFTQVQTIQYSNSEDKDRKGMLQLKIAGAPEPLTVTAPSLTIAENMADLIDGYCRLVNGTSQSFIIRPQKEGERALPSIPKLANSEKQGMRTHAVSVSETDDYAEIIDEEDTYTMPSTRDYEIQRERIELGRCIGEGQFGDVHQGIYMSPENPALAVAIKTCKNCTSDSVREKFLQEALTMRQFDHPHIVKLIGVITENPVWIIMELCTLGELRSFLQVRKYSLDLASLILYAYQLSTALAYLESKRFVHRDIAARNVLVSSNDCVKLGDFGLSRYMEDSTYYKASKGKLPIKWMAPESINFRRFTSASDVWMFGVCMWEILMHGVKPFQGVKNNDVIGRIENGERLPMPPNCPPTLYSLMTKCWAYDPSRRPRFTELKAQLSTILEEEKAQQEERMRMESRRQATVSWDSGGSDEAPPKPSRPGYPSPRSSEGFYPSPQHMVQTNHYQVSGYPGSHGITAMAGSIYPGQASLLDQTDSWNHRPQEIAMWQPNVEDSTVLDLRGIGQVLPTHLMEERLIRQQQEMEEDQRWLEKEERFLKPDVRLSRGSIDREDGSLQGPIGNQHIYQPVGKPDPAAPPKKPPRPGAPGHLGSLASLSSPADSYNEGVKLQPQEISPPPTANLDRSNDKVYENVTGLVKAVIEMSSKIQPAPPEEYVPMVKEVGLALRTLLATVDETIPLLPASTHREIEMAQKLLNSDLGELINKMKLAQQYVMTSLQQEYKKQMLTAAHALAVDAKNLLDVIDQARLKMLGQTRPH
Sequence of 363 human kinases (including Aurora A/B/C) (Homo sapiens, UniProt O75460) (O75460 19-977): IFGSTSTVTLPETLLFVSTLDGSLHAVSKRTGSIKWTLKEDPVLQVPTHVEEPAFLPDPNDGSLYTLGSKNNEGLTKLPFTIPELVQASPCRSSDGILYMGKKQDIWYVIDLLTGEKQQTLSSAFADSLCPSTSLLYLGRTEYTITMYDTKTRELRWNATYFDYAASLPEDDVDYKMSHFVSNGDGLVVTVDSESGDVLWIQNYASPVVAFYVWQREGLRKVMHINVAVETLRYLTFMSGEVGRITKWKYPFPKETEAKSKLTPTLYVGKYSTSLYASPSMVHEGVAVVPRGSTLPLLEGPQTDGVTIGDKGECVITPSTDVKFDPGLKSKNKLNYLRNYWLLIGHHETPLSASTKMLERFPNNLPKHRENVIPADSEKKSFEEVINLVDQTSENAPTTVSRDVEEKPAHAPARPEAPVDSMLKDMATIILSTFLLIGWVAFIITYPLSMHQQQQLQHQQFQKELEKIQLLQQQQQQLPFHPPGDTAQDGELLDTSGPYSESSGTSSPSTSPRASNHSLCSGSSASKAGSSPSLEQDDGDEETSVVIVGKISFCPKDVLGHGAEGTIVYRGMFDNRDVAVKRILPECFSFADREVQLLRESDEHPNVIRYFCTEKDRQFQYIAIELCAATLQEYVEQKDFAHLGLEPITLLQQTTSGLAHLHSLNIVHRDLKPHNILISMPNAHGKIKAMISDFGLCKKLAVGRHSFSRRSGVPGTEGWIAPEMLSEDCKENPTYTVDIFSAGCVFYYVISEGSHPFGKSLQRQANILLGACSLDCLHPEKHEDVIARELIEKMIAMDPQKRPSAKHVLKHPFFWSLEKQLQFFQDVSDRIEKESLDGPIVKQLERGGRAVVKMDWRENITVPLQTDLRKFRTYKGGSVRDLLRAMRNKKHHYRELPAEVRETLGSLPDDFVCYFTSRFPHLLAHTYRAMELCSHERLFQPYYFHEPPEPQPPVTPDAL
Sequence of 363 human kinases (including Aurora A/B/C) (Homo sapiens, UniProt P53667) (P53667 whole entry): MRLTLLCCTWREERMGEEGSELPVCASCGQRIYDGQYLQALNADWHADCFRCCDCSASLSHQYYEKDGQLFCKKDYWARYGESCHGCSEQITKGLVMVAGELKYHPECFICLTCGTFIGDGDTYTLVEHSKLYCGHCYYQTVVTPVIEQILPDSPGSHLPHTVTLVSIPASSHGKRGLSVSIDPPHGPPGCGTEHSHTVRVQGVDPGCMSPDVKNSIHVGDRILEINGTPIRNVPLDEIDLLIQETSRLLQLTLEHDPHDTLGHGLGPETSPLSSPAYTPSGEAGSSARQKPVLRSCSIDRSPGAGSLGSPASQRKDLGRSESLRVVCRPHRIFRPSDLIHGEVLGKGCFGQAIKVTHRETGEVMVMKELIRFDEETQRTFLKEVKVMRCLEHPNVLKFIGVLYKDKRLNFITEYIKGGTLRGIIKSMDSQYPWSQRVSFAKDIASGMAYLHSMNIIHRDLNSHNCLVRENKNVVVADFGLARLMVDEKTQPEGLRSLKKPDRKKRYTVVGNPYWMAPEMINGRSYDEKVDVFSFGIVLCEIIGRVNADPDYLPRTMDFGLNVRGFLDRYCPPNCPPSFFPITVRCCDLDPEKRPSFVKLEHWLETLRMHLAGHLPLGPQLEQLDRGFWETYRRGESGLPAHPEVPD

Question: Which remaining activity at 0.1 µM [1] does the source give for `O=C(O)[C@]1(Cc2cccc(Nc3nccs3)n2)CC[C@@H](Oc2cccc(Cl)c2F)CC1` [MK-5108] here?
Answer: 106%

Question: And the remaining activity at 0.5 µM ([1]; 500 nM)?
Answer: 88.8%

Question: And the remaining activity at 0.1 µM [2]?
Answer: 98.3%

Question: What about the remaining activity at 0.5 µM ([2]; 500 nM) of the same molecule?
Answer: 80.5%

Question: And the remaining activity at 0.1 µM [3]?
Answer: 102%

Question: And the remaining activity at 0.5 µM ([3]; 500 nM)?
Answer: 100%

Question: What about the remaining activity at 0.1 µM [4] of the same molecule?
Answer: 96.9%

Question: What about the remaining activity at 0.5 µM ([4]; 500 nM) of the same molecule?
Answer: 69%

Question: And the remaining activity at 0.1 µM [5]?
Answer: 49.8%

Question: What about the remaining activity at 0.5 µM ([5]; 500 nM) of the same molecule?
Answer: 15.2%

Question: What about the remaining activity at 0.1 µM [6] of the same molecule?
Answer: 7.97%

Question: What about the remaining activity at 0.5 µM ([6]; 500 nM) of the same molecule?
Answer: 1.89%

Question: And the remaining activity at 0.1 µM [7]?
Answer: 89.2%

Question: And the remaining activity at 0.5 µM ([7]; 500 nM)?
Answer: 102%

Question: What about the remaining activity at 0.1 µM [8] of the same molecule?
Answer: 24.4%

Question: What about the remaining activity at 0.5 µM ([8]; 500 nM) of the same molecule?
Answer: 5.4%

Question: What about the remaining activity at 0.1 µM [9] of the same molecule?
Answer: 101%

Question: What about the remaining activity at 0.5 µM ([9]; 500 nM) of the same molecule?
Answer: 91.3%

Question: What about the remaining activity at 0.1 µM [10] of the same molecule?
Answer: 96.3%

Question: And the remaining activity at 0.5 µM ([10]; 500 nM)?
Answer: 117%

Question: And the remaining activity at 0.1 µM [11]?
Answer: 126%

Question: What about the remaining activity at 0.5 µM ([11]; 500 nM) of the same molecule?
Answer: 97.9%

Question: Which “% Enzyme Activity (relative to DMSO controls)” value ([1]; 500 nM) does the source give for `O=C(c1cccc(Cl)c1F)N1CCN(Cc2cccc(Nc3nccs3)n2)CC1` [MK-8745] here?
Answer: 88.65%

Question: What about the remaining activity at 0.5 µM ([1]; 500 nM) of the same molecule?
Answer: 89.3%

Question: And the “% Enzyme Activity (relative to DMSO controls)” value ([2]; 500 nM)?
Answer: 89.30%

Question: And the remaining activity at 0.5 µM ([2]; 500 nM)?
Answer: 91.1%

Question: What about the “% Enzyme Activity (relative to DMSO controls)” value ([3]; 500 nM) of the same molecule?
Answer: 92.28%

Question: And the remaining activity at 0.5 µM ([3]; 500 nM)?
Answer: 92.9%

Question: And the “% Enzyme Activity (relative to DMSO controls)” value ([4]; 500 nM)?
Answer: 99.25%

Question: What about the remaining activity at 0.5 µM ([4]; 500 nM) of the same molecule?
Answer: 101%

Question: And the “% Enzyme Activity (relative to DMSO controls)” value ([5]; 500 nM)?
Answer: 58.97%

Question: And the remaining activity at 0.5 µM ([5]; 500 nM)?
Answer: 60.2%

Question: What about the “% Enzyme Activity (relative to DMSO controls)” value ([6]; 500 nM) of the same molecule?
Answer: 19.23%

Question: What about the remaining activity at 0.5 µM ([6]; 500 nM) of the same molecule?
Answer: 19.7%

Question: What about the “% Enzyme Activity (relative to DMSO controls)” value ([7]; 500 nM) of the same molecule?
Answer: 98.69%

Question: And the remaining activity at 0.5 µM ([7]; 500 nM)?
Answer: 100%

Question: And the “% Enzyme Activity (relative to DMSO controls)” value ([8]; 500 nM)?
Answer: 76.34%

Question: What about the remaining activity at 0.5 µM ([8]; 500 nM) of the same molecule?
Answer: 78.7%

Question: What about the “% Enzyme Activity (relative to DMSO controls)” value ([9]; 500 nM) of the same molecule?
Answer: 94.05%

Question: What about the remaining activity at 0.5 µM ([9]; 500 nM) of the same molecule?
Answer: 95.9%

Question: What about the “% Enzyme Activity (relative to DMSO controls)” value ([10]; 500 nM) of the same molecule?
Answer: 111.88%

Question: And the remaining activity at 0.5 µM ([10]; 500 nM)?
Answer: 114%

Question: What about the “% Enzyme Activity (relative to DMSO controls)” value ([11]; 500 nM) of the same molecule?
Answer: 91.42%

Question: And the remaining activity at 0.5 µM ([11]; 500 nM)?
Answer: 91.9%

Question: How did the remaining activity at 0.1 µM [1] turn out when `CCn1cc(-c2ccnc3[nH]c(-c4cccc(CN(C)C)c4)cc23)c(-c2ccc(NC(=O)N(C)C)cc2)n1` [GSK1070916] was run?
Answer: 95.9%

Question: And the remaining activity at 0.1 µM [2]?
Answer: 97.8%

Question: And the remaining activity at 0.1 µM [3]?
Answer: 95.6%

Question: What about the remaining activity at 0.1 µM [4] of the same molecule?
Answer: 96.8%

Question: And the remaining activity at 0.1 µM [5]?
Answer: 95.2%

Question: What about the remaining activity at 0.1 µM [6] of the same molecule?
Answer: 26.2%

Question: What about the remaining activity at 0.1 µM [7] of the same molecule?
Answer: 99.4%

Question: What about the remaining activity at 0.1 µM [8] of the same molecule?
Answer: 86.9%

Question: What about the remaining activity at 0.1 µM [9] of the same molecule?
Answer: 83%

Question: And the remaining activity at 0.1 µM [10]?
Answer: 97.2%

Question: And the remaining activity at 0.1 µM [11]?
Answer: 101%
